One assay has as its system Nox4. Kind of assay: H2O2-generating activity of lysed COS-Nox4 cells (Amplex Red fluorescence). It counts as biochemical, human. The note with it: for inhibition of H2O2 production (Nox4 activity): COS-Nox4 cell lysate preincubated with peptide 1 to 50 μM for 15 min at 24°C, mean of 3 experiments (Figure 1(f)); for effect on Nox4 activity (H2O2 production): COS-Nox4 cell lysate preincubated with various concentrations of C-terminal tail peptide for 15 min at 24°C, mean of 3 experiments (Figure 2(b)); for inhibition of Nox4 activity (Nox4-derived H2O2 production): COS-Nox4 cell lysate preincubated with various concentrations of p22phox N-terminal peptide for 15 min at 24°C, mean of 3 experiments (Figure 3(b),(c)). As for the experimental part:
Cell transfection was carried out using Lipofectamine LTX and Plus reagent (Invitrogen, Carlsbad, CA, USA), according to the manufacturer's instructions. COS-22 cells were transiently transfected with pcDNA3.1/Hygro-hNox4 (COS-Nox4 cells). Western blot experiments were performed to validate the expression of Nox4 as we reported previously. Twenty-four hours after transfection, cells were harvested by incubating with 0.05% trypsin/EDTA for 5 min at 37°C. Following addition of DMEM/10% FBS to neutralize the trypsin, the cells were pelleted by centrifugation at 1000 ×g for 5 min at 4°C and used for the experiments.
H2O2 production was quantified in lysed COS-Nox4 cells as described previously. […] COS-Nox4 and COS-22 cells were suspended to a concentration of 5 × 10^7 cells/mL in ice-cold disruption buffer (PBS containing 0.1 mM EDTA, 10% glycerol, protease inhibitor cocktail, and 0.1 mM PMSF). The cells were lysed by five freeze/thaw cycles and passed through a 30-gauge needle five times to further lyse the cells. Throughout all these procedures, extreme care was taken to maintain the lysate at a temperature close to 0°C. Incubation of COS-Nox4 cell lysate (10 μg/100 μL) with peptides was performed in assay buffer (25 mM Hepes, pH 7.4, containing 120 mM NaCl, 3 mM KCl, 1 mM MgCl2, 25 μM FAD, 0.1 mM Amplex Red, and 0.32 U/mL of HRP) for 15 or 60 min at room temperature on an orbital shaker (120 movements/min), before the addition of 36 μM NADPH, to initiate H2O2 production. […] Fluorescence measurements were made using a Biotek Synergy 4 Hybrid Multi-Mode Microplate Reader (excitation wavelength: 560 nm; emission wavelength: 590 nm). A standard curve of known H2O2 concentrations was developed using the Amplex Red assay (as per the manufacturer's instructions) and was used to quantify H2O2 production in lysed COS-Nox4 cells. The reaction was monitored at room temperature for 40 min. The emission increase was linear during this interval. The rate of H2O2 production was interpolated from the standard curve and is […] nmol H2O2/min/mg protein. The effect of a peptide on Nox4-derived H2O2 production was expressed as percent inhibition of Nox4, which was calculated by considering H2O2 production by control mixtures in the absence of peptide as 100%.

In the next assay the test system is Nox2. The note with it: ref [8]; cited from earlier work. An excerpt:
With this in mind, in the current study, we tested whether application of a peptide mimic (B90–98) from the variable region of Nox4 B-loop interferes with the activity of Nox4. An important premise for this work was ...

As to “B92–106: 15-mer peptide from the Nox4 B-loop, residues 92–106 (RRTRRLLDKSRTFHI; UniProt Q9NPH5 92-106, looked up, fragment)”, the “inhibition of H2O2 production (Nox4 activity)” value (shortened to “inhibition of H2O2 production”) in the assay with Nox4 (Amplex Red) is “did not inhibit”.
“C555–562: octameric Nox4 C-terminal tail peptide, residues 555–562 (TLHKLSNQ; UniProt Q9NPH5 555-562, looked up, fragment)”: the “effect on Nox4 activity (H2O2 production)” value (shortened to “effect on Nox4 activity”) in the assay with Nox4 (Amplex Red) is recorded as “did not affect”.
On to “B77–91: 15-mer peptide from the Nox4 B-loop, residues 77–91 (RTLLAYLRGSQKVPS; UniProt Q9NPH5 77-91, looked up, fragment)”, for which, in the assay with Nox4 (Amplex Red), the “inhibition of H2O2 production” value is given as “did not inhibit”.
With “Nox2ds: peptide mimicking the B-loop region of Nox2 (amino acids 86–94), earlier work of the authors (CSTRVRRQL; UniProt P04839 86-94, looked up, fragment)”, the “inhibition of Nox2-derived O2•− production” value with Nox2 is “selectively and potently inhibits”.
As to “RAMRAN [p22 W6/9R, p22phox 6–11 peptide with tryptophans mutated to arginine (RAMRAN)]”, in the assay on Nox4 (Amplex Red), the “inhibition of Nox4 activity (Nox4-derived H2O2 production)” value is recorded as “did not inhibit”.
Still for that read-out and setting: the result for WAMWAN [p22 WT 6–11] reads “did not inhibit”.
Take `c1ccc2c(c1)[I+]c1ccccc1-2` [DPI, diphenyleneiodonium chloride, reference compound]: the “inhibition of Nox4-dependent activity (rate of H2O2 generation)” value with Nox4 (COS-Nox4 cell lysate, DPI 50 μM, 36 μM NADPH, Amplex Red/HRP, monitored at 24°C for 40 min, mean of 3 experiments) is listed as ~ 90%.
As to “B90–98: nonamer peptide mimic from the variable region of Nox4 B-loop, residues 90–98 (PSRRTRRLL; UniProt Q9NPH5 90-98, looked up, fragment)”, in the assay with Nox4 (COS-Nox4 cell lysate preincubated with peptide 0.1-100 μM for 15 min at 24°C, 36 μM NADPH, Amplex Red, mean of 3 experiments (Figure 1(d))), the “inhibition of Nox4-derived H2O2 production” value is “did not inhibit”.
Take “PSRRTRELL [R96E mutant version of B90–98, R96E mutant version of B90–98 (…)]”: in the assay on Nox4 (COS-Nox4 cell lysate preincubated with peptide 0.3 to 30 μM for 15 min at 24°C, Amplex Red, mean of 3 experiments (Figure 1(e))), the “inhibition of Nox4 activity (H2O2 production)” value is listed as “did not inhibit”.
For “C570–578: nonameric Nox4 C-terminal tail peptide, residues 570–578 (FEYNKESFS; UniProt Q9NPH5 570-578, looked up, fragment)”, in the assay with Nox4 (Amplex Red), the “effect on Nox4 activity” value is given as “did not affect”.
Still for that read-out and setting: the result for “C560–567: octameric Nox4 C-terminal tail peptide, residues 560–567 (SNQNNSYG; UniProt Q9NPH5 560-567, looked up, fragment)” reads “did not affect”.
On to “B82–96: 15-mer peptide from the Nox4 B-loop, residues 82–96 (YLRGSQKVPSRRTRR; UniProt Q9NPH5 82-96, looked up, fragment)”, for which the “inhibition of H2O2 production” value with Nox4 (Amplex Red) is recorded as “did not inhibit”.
In the case of “C565–572: octameric Nox4 C-terminal tail peptide, residues 565–572 (SYGTRFEY; UniProt Q9NPH5 565-572, looked up, fragment)”, in the assay on Nox4 (Amplex Red), the “effect on Nox4 activity” value is “did not affect”.

Values taken from publication PMC3626398, “Strategies Aimed at Nox4 Oxidase Inhibition Employing Peptides from Nox4 B-Loop and C-Terminus and p22^phox N-Terminus: An Elusive Target” (International Journal of Hypertension, 2013).
